Data as given in PubChem BioAssay AID330 (DTP/NCI, 2004).
“And” between values parts separate entries of the source, which are not always exact repeats. Equal entries are not always repeated. Inconclusive results and toxic doses are left out. How the source made its calls: active means survival T/C of 150% or more; inactive means T/C below 125% in these data.

System: P388 leukemia ip, CD2F1 mice, survival T/C
Assay: NCI In Vivo Anticancer Drug Screen. Data for tumor model P388 Leukemia (intraperitoneal) in CD2F1 (CDF1) mice
Conditions: endpoint: median survival time, higher = longer survival
Summary of the method: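 Mice carrying the transplanted tumor received test compound or vehicle. Survival was recorded in each group, and the value is the treated-group measurement divided by that of the vehicle-treated control group.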

[1] = dose: 60.0 mg/kg/injection, schedule: Q01DX005 (ip), vehicle: saline with Tween-80
[2] = dose: 120.0 mg/kg/injection, schedule: Q01DX005 (ip), vehicle: saline with Tween-80
[3] = dose: 240.0 mg/kg/injection, schedule: Q01DX005 (ip), vehicle: saline with Tween-80
[4] = dose: 50.0 mg/kg/injection, schedule: Q01DX005 (ip), vehicle: Klucel (hydroxypropylcellulose) (HPC)
[5] = dose: 100.0 mg/kg/injection, schedule: Q01DX005 (ip), vehicle: Klucel (hydroxypropylcellulose) (HPC)
[6] = dose: 200.0 mg/kg/injection, schedule: Q01DX005 (ip), vehicle: Klucel (hydroxypropylcellulose) (HPC)
[7] = dose: 50.0 mg/kg/injection, schedule: Q01DX009 (ip), vehicle: saline with Tween-80
[8] = dose: 100.0 mg/kg/injection, schedule: Q01DX009 (ip), vehicle: saline with Tween-80
[9] = dose: 200.0 mg/kg/injection, schedule: Q01DX009 (ip), vehicle: saline with Tween-80
[10] = dose: 50.0 mg/kg/injection, schedule: Q01DX005 (ip), vehicle: saline with Tween-80
[11] = dose: 100.0 mg/kg/injection, schedule: Q01DX005 (ip), vehicle: saline with Tween-80
[12] = dose: 200.0 mg/kg/injection, schedule: Q01DX005 (ip), vehicle: saline with Tween-80
[13] = dose: 50.0 mg/kg/injection, schedule: Q01DX005 (ip), vehicle: saline
[14] = dose: 100.0 mg/kg/injection, schedule: Q01DX005 (ip), vehicle: saline
[15] = dose: 200.0 mg/kg/injection, schedule: Q01DX005 (ip), vehicle: saline

Measured: T/C

COC(=O)C1=C(OC)C(C(=O)c2ccccc2)NC1=O (stereo not given)
inactive: [1] 111 % of control | [2] 100 % of control | [3] 99 % of control

O=C(N/N=C/c1ccco1)C(=O)Nc1cccc(C(F)(F)F)c1
inactive: dose: 12.5 mg/kg/injection, schedule: Q01DX005 (ip), vehicle: Klucel (hydroxypropylcellulose) (HPC) 95 % of control | dose: 25.0 mg/kg/injection, schedule: Q01DX005 (ip), vehicle: Klucel (hydroxypropylcellulose) (HPC) 89 % of control | [4] 88 % of control and 95 % of control

c1ccc2c(CN3CCCCC3)c[nH]c2c1
inactive: dose: 50.0 mg/kg/injection, schedule: Q04DX003 (ip), vehicle: saline with Tween-80 100 % of control | dose: 100.0 mg/kg/injection, schedule: Q04DX003 (ip), vehicle: saline with Tween-80 90 % of control

CC1CN1c1nc(N2CC2C)nc(N2CC2C)n1 (stereo not given)
inactive: dose: 1.56 mg/kg/injection, schedule: Q01DX009 (ip), vehicle: saline with Tween-80 94 % of control | dose: 3.13 mg/kg/injection, schedule: Q01DX009 (ip), vehicle: saline with Tween-80 98 % of control

Cc1ccc(S(=O)(=O)N2c3ccccc3CCN2/C=C/c2ccccc2)cc1
inactive: [4] 100 % of control | [5] 93 % of control | [6] 96 % of control

[O-]/[N+](=C\c1ccccc1)CC1(O)CCCCC1
inactive: [7] 90 % of control | [8] 88 % of control | [9] 99 % of control

CCOC(=O)c1cc(Cl)nc2ccc3ccccc3c12
inactive: [10] 95 % of control | [11] 98 % of control | [12] 100 % of control

CSc1nc(Cl)c(Cl)cc1Cl
inactive: [7] 100 % of control | [8] 97 % of control | [9] 91 % of control

CCOC(=O)CC1(O)CSC(=C(C#N)C#N)S1 (stereo not given)
inactive: [10] 100 % of control | [11] 100 % of control | [12] 92 % of control

CCOC(=O)C(CC)c1ccncc1C (stereo not given)
inactive: dose: 25.0 mg/kg/injection, schedule: Q04DX002 (ip), vehicle: saline with Tween-80 106 % of control | dose: 50.0 mg/kg/injection, schedule: Q04DX002 (ip), vehicle: saline with Tween-80 114 % of control | dose: 100.0 mg/kg/injection, schedule: Q04DX002 (ip), vehicle: saline with Tween-80 118 % of control | dose: 200.0 mg/kg/injection, schedule: Q04DX002 (ip), vehicle: saline with Tween-80 110 % of control

CC/C(=N/NS(=O)(=O)c1ccc(C)cc1)c1ccc(C(C)(C)C)cc1
inactive: dose: 50.0 mg/kg/injection, schedule: Q01DX009 (ip), vehicle: saline 99 % of control and 96 % of control | dose: 100.0 mg/kg/injection, schedule: Q01DX009 (ip), vehicle: saline 102 % of control | dose: 200.0 mg/kg/injection, schedule: Q01DX009 (ip), vehicle: saline 102 % of control and 87 % of control

CCOC(=O)c1cn(CC)c2cc(-n3cccc3)c(F)cc2c1=O
inactive: [1] 98 % of control | [2] 97 % of control | [3] 94 % of control

CC(=O)N1C=Cc2ccccc2C1C1NC=Cc2ccccc21 (stereo not given)
inactive: [10] 96 % of control | [11] 94 % of control | [12] 88 % of control

CC(C)C(O)(C(=O)OCC1=CCN2CCC(O)C12)C(C)O (stereo not given)
inactive: [13] 103 % of control | [14] 109 % of control | [15] 117 % of control

CC(C)=CCc1c2c(c3occ(-c4ccc(O)cc4)c(=O)c3c1O)C=CC(C)(C)O2
inactive: dose: 25.0 mg/kg/injection, schedule: Q01DX009 (ip), vehicle: Klucel (hydroxypropylcellulose) (HPC) 90 % of control | dose: 50.0 mg/kg/injection, schedule: Q01DX009 (ip), vehicle: Klucel (hydroxypropylcellulose) (HPC) 90 % of control | dose: 100.0 mg/kg/injection, schedule: Q01DX009 (ip), vehicle: Klucel (hydroxypropylcellulose) (HPC) 88 % of control | dose: 200.0 mg/kg/injection, schedule: Q01DX009 (ip), vehicle: Klucel (hydroxypropylcellulose) (HPC) 88 % of control

CCn1c2ccccc2c2ccc(N=Cc3ccc4ccccc4c3)cc21
inactive: dose: 100.0 mg/kg/injection, schedule: Q04DX003 (ip), vehicle: saline + alcohol 92 % of control | dose: 200.0 mg/kg/injection, schedule: Q04DX003 (ip), vehicle: saline + alcohol 97 % of control | dose: 400.0 mg/kg/injection, schedule: Q04DX003 (ip), vehicle: saline + alcohol 97 % of control

CC(C)CC(N)C(=O)NC(Cc1cc2ccccc2[nH]1)C(=O)O (stereo not given)
inactive: [7] 101 % of control | [8] 107 % of control | [9] 104 % of control

CC(=NCCCCN=C(C)c1cc(C)cc([N+](=O)[O-])c1O)c1cc(C)cc([N+](=O)[O-])c1O.[Co]
inactive: dose: 100.0 mg/kg/injection, schedule: Q05DX002 (ip), vehicle: saline with Tween-80 92 % of control | dose: 200.0 mg/kg/injection, schedule: Q05DX002 (ip), vehicle: saline with Tween-80 98 % of control | dose: 400.0 mg/kg/injection, schedule: Q05DX002 (ip), vehicle: saline with Tween-80 92 % of control

CC(C)(C)n1nc(C2CC2)c(Br)c1NC(=O)c1ccccc1
inactive: dose: 30.0 mg/kg/injection, schedule: Q01DX005 (ip), vehicle: Klucel (hydroxypropylcellulose) (HPC) 107 % of control | dose: 60.0 mg/kg/injection, schedule: Q01DX005 (ip), vehicle: Klucel (hydroxypropylcellulose) (HPC) 109 % of control | dose: 120.0 mg/kg/injection, schedule: Q01DX005 (ip), vehicle: Klucel (hydroxypropylcellulose) (HPC) 107 % of control | dose: 240.0 mg/kg/injection, schedule: Q01DX005 (ip), vehicle: Klucel (hydroxypropylcellulose) (HPC) 98 % of control

O=C1CCCCC2CC2C1=O (stereo not given) (tested in a mixture with another compound)
inactive: dose: 50.0 mg/kg/injection, schedule: Q01DX009 (ip), vehicle: other 101 % of control | dose: 100.0 mg/kg/injection, schedule: Q01DX009 (ip), vehicle: other 100 % of control | dose: 200.0 mg/kg/injection, schedule: Q01DX009 (ip), vehicle: other 108 % of control

NC(=O)NCP(=O)(CNC(N)=O)CNC(N)=O
inactive: [13] 100 % of control | [14] 97 % of control | [15] 95 % of control

COC(=O)/C=C\C(C)=C/C(=O)OC
inactive: [4] 100 % of control | [5] 99 % of control | [6] 99 % of control

O=C1OCCCOC(=O)c2cc(ccc2O)OCC#CC#CCOc2ccc(O)c1c2
inactive: [1] 92 % of control | [2] 97 % of control | [3] 97 % of control
